Results taken from publication PMC5584945, “Evaluation of robenidine analog NCL195 as a novel broad-spectrum antibacterial agent” (PLoS ONE, 2017).

Tests used:
S. pneumoniae D39 = assay: Minimum bactericidal concentration (MBC); format: cell-based; conditions: Streptococcus pneumoniae
[1] = system: vancomycin-resistant enterococci (VRE); assay: MIC, broth micro-dilution (CLSI); format: cell-based, enterococci (porcine isolates); conditions: for MIC50 / MIC90 / MIC: Enterococcus, VRE
S. aureus Xen29 = assay: Minimum bactericidal concentration (MBC); format: cell-based; conditions: Staphylococcus aureus, 99.9% colony count reduction
Experimental: The tray was covered with Breathe-Easy sealing membrane (Z380059, Sigma-Aldrich) and incubated for 16 h overnight at 35°C in an EnSpire Multimode Plate Reader 2300 (PerkinElmer), with data collected every 20 min and 2 sec agitation at 60 rpm between data (A600 nm) acquisitions. The experiment was repeated using the luminescent D39LUX strain on a Cytation 5 Cell Imaging Multi-Mode Reader (BioTek) using IsoplateTM-96 F tray PerkinElmer, 6005020). Kill kinetic assays on S. aureus Xen29 was carried out essentially as described for MIC determination on Cytation 5 Cell Imaging Multi-Mode Reader.
In order to determine the MBC of each compound against S. pneumoniae D39 or S. aureus Xen29, 10 μl aliquots from each duplicate well from the MIC assays (starting from the MIC for each compound) was inoculated onto a HBA plate and incubated at 37°C (+ 5% CO2 for S. pneumoniae D39). Plates were examined at 24 and 48 h and the MBC was recorded as the lowest concentration of each test compound at which a 99.9% colony count reduction was observed on the plate.

MDBK = assay: Real-time cell viability, RealTime-Glo MT; format: cell-based, bovine; conditions: 2 or 8 μg/ml, up to 20 h post-treatment
From the text: In order to ensure minimal off target mammalian cell cytotoxicity, we assayed NCL812, NCL195 and NCL219 for in vitro cytotoxicity using a panel of adherent mammalian cell lines: Caco-2 (human colorectal adenocarcinoma cell line), HEL 299 (non-cancerous human lung fibroblast cell line), Hep G2 (human hepatocellular carcinoma cell line), MDBK (normal bovine kidney cell line) and MCF7 (human mammary gland adenocarcinoma cell line). Cell lines were maintained in Dulbecco’s Modified Eagle’s Medium (DMEM; […] After 24 h incubation, media was removed, washed once with medium without antibiotics and fresh medium supplemented with 10% (vol/vol) FBS was added. […] Following exposure for 24 h, WST-1 reagent was added to each well at a final concentration of 10%. […] The IC50 value for each compound against each cell line was determined via non-linear regression (three parameters) using GraphPad Prism v6 software. The robustness of assays was confirmed with selected cell lines (Hep G2 and MDBK) seeded onto a 96–well Microwell Nunclon Delta Surface plate (Thermo Scientific Nunc; Cat No: 136101) at 5 × 10^4 cells per well.

[2] = system: Enterococcus faecalis ATCC 29212; assay: MIC, broth micro-dilution (CLSI), control strain; format: cell-based; conditions: ATCC29212, 10% FBS
Method in brief: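 MICs by CLSI broth micro-dilution, in duplicate, using serial two-fold dilutions starting at 128 μg/ml. Against Gram-negative species including N. meningitidis, MICs were measured with or without 0.08 mM-20 mM EDTA in a standard checkerboard. MIC50, MIC90 and range were derived per isolate set.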

[3] = S3 Table isolates, absence of FBS

SMILES: Cl.N=C(NN=Cc1ccc(Cl)cc1)NN=Cc1ccc(Cl)cc1 [NCL812, 2,2'-bis[(4-chlorophenyl)methylene] carbonimidic dihydrazide hydrochloride]
- MBC (S. pneumoniae D39): 8 µg/mL
- Fold increase of MIC range in the presence of 10% FBS ([1]; 10% FBS versus no FBS): 8-16 fold
- MIC range ([1]; 20 isolates): 2 to 4 µg/mL
- MIC50 ([1]; S3 Table isolates, 10% FBS): 32 µg/mL
- MIC90 ([1]; S3 Table isolates, 10% FBS): 32 µg/mL
- MIC50 [1, 3]: 2 µg/mL
- MIC90 [1, 3]: 2 µg/mL
- MIC ([1]; VRE 1 (49 FR), 10% FBS): 32 µg/mL
- MIC ([1]; VRE 1 (49 FR), absence of FBS): 2 µg/mL
- MIC ([1]; VRE 2 (53 FR), 10% FBS): 32 µg/mL
- MIC ([1]; VRE 2 (53 FR), absence of FBS): 2 µg/mL
- MIC ([1]; VRE 3 (55 FR), 10% FBS): 32 µg/mL
- MIC ([1]; VRE 3 (55 FR), absence of FBS): 2 µg/mL
- MIC ([1]; VRE 4 (57 FR), 10% FBS): 32 µg/mL
- MIC ([1]; VRE 4 (57 FR), absence of FBS): 2 µg/mL
- MIC ([1]; VRE5 (58 FR), 10% FBS): 32 µg/mL
- MIC ([1]; VRE5 (58 FR), absence of FBS): 4 µg/mL
- MIC ([1]; VRE 6 (59 FR), 10% FBS): 32 µg/mL
- MIC ([1]; VRE 6 (59 FR), absence of FBS): 2 µg/mL
- MIC ([1]; VRE 7 (270 G), 10% FBS): 32 µg/mL
- MIC ([1]; VRE 7 (270 G), absence of FBS): 4 µg/mL
- MIC ([1]; VRE 8 (277 G), 10% FBS): 32 µg/mL
- MIC ([1]; VRE 8 (277 G), absence of FBS): 2 µg/mL
- MIC ([1]; VRE 9 (61 FR), 10% FBS): 32 µg/mL
- MIC ([1]; VRE 9 (61 FR), absence of FBS): 2 µg/mL
- MIC ([1]; VRE 10 (62 FR), 10% FBS): 32 µg/mL
- MIC ([1]; VRE 10 (62 FR), absence of FBS): 2 µg/mL
- MIC ([1]; VRE 11 (284 G), 10% FBS): 32 µg/mL
- MIC ([1]; VRE 11 (284 G), absence of FBS): 2 µg/mL
- MIC ([1]; VRE 12 (290 G), 10% FBS): 32 µg/mL
- MIC ([1]; VRE 12 (290 G), absence of FBS): 2 µg/mL
- MIC ([1]; VRE 13 (251 G), 10% FBS): 32 µg/mL
- MIC ([1]; VRE 13 (251 G), absence of FBS): 2 µg/mL
- MIC ([1]; VRE 14 (252 G), 10% FBS): 32 µg/mL
- MIC ([1]; VRE 14 (252 G), absence of FBS): 2 µg/mL
- MIC ([1]; VRE 15 (63 FR), 10% FBS): 32 µg/mL
- MIC ([1]; VRE 15 (63 FR), absence of FBS): 2 µg/mL
- MIC ([1]; VRE 16 (60 FR), 10% FBS): 32 µg/mL
- MIC ([1]; VRE 16 (60 FR), absence of FBS): 4 µg/mL
- MIC ([1]; VRE 17 (45 FR), 10% FBS): 32 µg/mL
- MIC ([1]; VRE 17 (45 FR), absence of FBS): 2 µg/mL
- MIC ([1]; VRE 18 (69 W), 10% FBS): 32 µg/mL
- MIC ([1]; VRE 18 (69 W), absence of FBS): 2 µg/mL
- MIC ([1]; VRE 19 (70 W), 10% FBS): 32 µg/mL
- MIC ([1]; VRE 19 (70 W), absence of FBS): 2 µg/mL
- MIC ([1]; VRE 20 (78 W), 10% FBS): 32 µg/mL
- MIC ([1]; VRE 20 (78 W), absence of FBS): 2 µg/mL
- MIC range ([1]; S3 Table isolates, 10% FBS): 32 µg/mL
- MIC range [1, 3]: 2 to 4 µg/mL
- MBC (S. aureus Xen29): 4 µg/mL
- Effect on cell viability (real-time) (MDBK): affected viability at 8 μg/ml
- MIC [2]: 32 µg/mL
